Laboratory results reported in patent publication US9980948B2, “Azaindole derivative having AMPK-activating activity” (Shionogi & Co., Ltd., priority 2014, dated 2018).

Target: T1, Human AMPK α2β2γ1 (Homo sapiens, UniProt O43741+P54646)
T1 construct: The full length cDNAs of human AMPK β2 (NM_005399.3) and human AMPK α2 (NM_006252.3); The full length cDNAs of human AMPK β2 (NM_005399.3); the full length cDNA of human AMPK γ1 (NM_002733.3) had been inserted into pET28b(+); 6xHis (N); made in house; host or cells: Escherichia coli BL21 CodonPlus (DE3)-RTL (AMPK); BL21 Star (DE3) (CaMKKβ)
T1 sequence (P54646 whole entry): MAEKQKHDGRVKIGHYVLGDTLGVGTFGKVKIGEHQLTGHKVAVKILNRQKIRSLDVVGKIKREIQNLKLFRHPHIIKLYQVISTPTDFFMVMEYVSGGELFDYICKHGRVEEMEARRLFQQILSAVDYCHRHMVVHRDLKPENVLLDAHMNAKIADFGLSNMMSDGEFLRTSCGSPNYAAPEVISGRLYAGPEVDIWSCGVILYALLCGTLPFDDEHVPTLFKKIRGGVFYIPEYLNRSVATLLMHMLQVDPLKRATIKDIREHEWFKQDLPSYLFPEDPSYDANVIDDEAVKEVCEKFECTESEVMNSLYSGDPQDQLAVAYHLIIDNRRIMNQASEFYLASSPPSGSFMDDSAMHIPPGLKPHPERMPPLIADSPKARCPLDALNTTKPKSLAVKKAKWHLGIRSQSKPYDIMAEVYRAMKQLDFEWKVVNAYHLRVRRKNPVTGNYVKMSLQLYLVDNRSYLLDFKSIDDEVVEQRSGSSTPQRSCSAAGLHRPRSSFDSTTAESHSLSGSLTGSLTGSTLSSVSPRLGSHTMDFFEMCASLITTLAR
T1 sequence (O43741 whole entry): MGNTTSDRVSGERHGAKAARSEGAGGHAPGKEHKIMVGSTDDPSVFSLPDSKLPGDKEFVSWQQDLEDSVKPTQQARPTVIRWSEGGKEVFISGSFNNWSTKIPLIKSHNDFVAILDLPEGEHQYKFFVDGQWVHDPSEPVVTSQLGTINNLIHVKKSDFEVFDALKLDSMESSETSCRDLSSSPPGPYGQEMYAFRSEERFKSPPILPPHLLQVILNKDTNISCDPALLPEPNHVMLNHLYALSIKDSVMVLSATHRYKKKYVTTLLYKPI
T1 sequence (P54619 whole entry partner): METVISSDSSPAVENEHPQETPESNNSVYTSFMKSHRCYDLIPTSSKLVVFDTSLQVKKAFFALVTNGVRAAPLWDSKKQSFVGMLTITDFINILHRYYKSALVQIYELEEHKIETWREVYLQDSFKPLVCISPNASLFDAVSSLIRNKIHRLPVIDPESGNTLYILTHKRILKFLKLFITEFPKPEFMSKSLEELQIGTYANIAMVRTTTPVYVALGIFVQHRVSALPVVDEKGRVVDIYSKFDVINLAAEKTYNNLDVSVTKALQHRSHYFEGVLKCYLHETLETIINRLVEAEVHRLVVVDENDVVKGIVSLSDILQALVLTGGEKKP
Experiment: Test Example 2: evaluation of an activator for AMP-activated protein kinase (AMPK), human AMPK α2β2γ1 phosphorylated with CaMKK2, FL-Peptide 7 mobility shift
Type: biochemical
Conditions: for EC150 (compound concentration showing 150% relative to the control (100%)): human AMPK α2β2γ1, 0.2 mM ATP final, 25° C., 2 hours; for Emax: read-out: Emax (maximum rate of increase in activity within the measurement range)
Procedure: The full length cDNAs of human AMPK β2 (NM_005399.3) and human AMPK α2 (NM_006252.3) were inserted into the MCS1 and MCS2 of the pETDuet-1 vector to prepare a human AMPK β2 and human AMPK α2 (6× His tag at the 5′ terminus) expressing plasmid. The plasmid was cotransfected with an expression plasmid, in which the full length cDNA of human AMPK γ1 (NM_002733.3) had been inserted into pET28b(+), into BL21 CodonPlus (DE3)-RTL to obtain an expression strain. The expression strain was cultured in TB medium, followed by induction with 0.5 mM IPTG, and cultured at 25° C. for 3 hours and then harvested.
An expression vector, in which the full length cDNA of human CAMKK β (NM_172226.1) had been inserted into pGEX-6P-3, was transfected into BL21 Star (DE3). The expression strain was cultured in TB medium, followed by induction with 0.5 mM IPTG, and cultured at 25° C. for 3 hours and then harvested.
Thus, phosphorylation treatment was carried out as pretreatment.
Human AMPK α2β2γ1 in an amount to give a conversion rate of approximately 10% by reaction for 2 hours, and CaMKK2 in an amount capable of sufficiently imparting activity to AMPK for one hour were mixed in a buffer solution consisting of a 50 mM HEPES-NaOH buffer solution (pH 7.0), 100 mM NaCl, 5 mM magnesium chloride, 0.1% bovine serum albumin, 0.2 mM sodium orthovanadate(V), 1 mM ethylene glycol-bis(2-aminoethyl ether)-N,N,N′,N′-tetraacetic acid (EGTA), 5 mM disodium β-glycerophosphate, 1 mM dithiothreitol and 0.2 mM ATP, and the obtained liquid was left to stand at 25° C. for 1 to 1.5 hours to sufficiently phosphorylate AMPK.
The obtained liquid was left to stand for 10 minutes.
The obtained liquid was allowed to react at 25° C. for 2 hours, and 10 μl of 20 mM EDTA was then added thereto to stop the reaction.
To detect phosphorylated fluorescent substrates, the reaction liquid was applied to a measuring device, LabChip EZ Reader II manufactured by Caliper Life Science, Inc., for detecting fluorescence by using differences in mobility due to differences in charge. The setting conditions for the device were pressure, −1.5 PSI; upstream voltage, −2250 V; downstream voltage, −400 V; post sample buffer sip time, 40 seconds; final delay, 120 seconds; and peak order, Product First.
A conversion rate was calculated from the peak heights of the resulting substrate and product. The conversion rate when not containing a compound was used as a control, and a concentration dependent curve was made by plotting the rate of increase in activity to the control at each concentration of a compound.

[1] = human AMPK α2β2γ1, relative to control (100%)

SMILES	EC150 (compound concentration showing 150% relative to the control (100%)) [nM]	Emax [1] [%]	Emax (maximum rate of increase in activity within the measurement range) [1] [%]
CS(C)(=O)=Nc1ccc(-c2ccc(-c3nc4cc(O[C@@H]5CO[C@H]6[C@@H]5OC[C@H]6O)[nH]c4cc3F)c(F)c2)cc1 [Compound I-4-5]	3.2	510	–
CS(C)(=O)=NC1CC=C(c2ccc(-c3nc4cc(O[C@@H]5CO[C@H]6[C@@H]5OC[C@H]6O)[nH]c4cc3F)cc2)CC1 (stereo partly drawn) [Compound I-4-17]	2.9	511	–
CN=S(C)(=O)c1ccc(-c2ccc(-c3nc4cc(O[C@@H]5CO[C@H]6[C@@H]5OC[C@H]6O)[nH]c4cc3C(F)(F)F)cc2)cc1 (stereo partly drawn) [Compound I-4-18]	9.5	598	–
CS(=O)(=NCCO)c1ccc(-c2ccc(-c3nc4cc(O[C@@H]5CO[C@H]6[C@@H]5OC[C@H]6O)[nH]c4cc3F)cc2)cc1 (stereo partly drawn) [Compound I-4-31]	3.1	674	–
CNS(=O)(=O)Nc1ccc(-c2ccc(-c3nc4cc(O[C@@H]5CO[C@H]6[C@@H]5OC[C@H]6O)[nH]c4cc3F)cc2)cc1 [Compound I-4-34]	4	431	–
COC(=O)Nc1ccc(-c2ccc(-c3nc4cc(O[C@@H]5CO[C@H]6[C@@H]5OC[C@H]6O)[nH]c4cc3F)cc2)cc1 [Compound I-4-35]	10	447	–
CN=S(C)(=O)c1ccc(-c2ccc(-c3nc4cc(O[C@@H]5CO[C@H]6[C@@H]5OC[C@H]6O)[nH]c4cc3F)cc2)cc1 (stereo partly drawn) [Compound I-4-36]	2.3	510	–
CN=S(C)(=O)c1ccc(-c2ccc(-c3nc4cc(O[C@@H]5CO[C@H]6[C@@H]5OC[C@H]6O)[nH]c4cc3F)cc2)cc1 (stereo partly drawn) [Compound I-4-37]	1.5	–	502
CNS(=O)(=O)c1ccc(-c2ccc(-c3nc4cc(O[C@@H]5CO[C@H]6[C@@H]5OC[C@H]6O)[nH]c4cc3F)cc2)cc1 [Compound I-4-39]	1.9	479	–
CS(=O)(=O)c1ccc(-c2ccc(-c3nc4cc(O[C@@H]5CO[C@H]6[C@@H]5OC[C@H]6O)[nH]c4cc3F)cc2)nc1 [Compound I-4-41]	1.4	441	–
CCS(C)(=O)=Nc1ccc(-c2ccc(-c3nc4cc(O[C@@H]5CO[C@H]6[C@@H]5OC[C@H]6O)[nH]c4cc3F)cc2)cc1 (stereo partly drawn) [Compound I-4-43]	1.3	453	–
NC(=O)Nc1ccc(-c2ccc(-c3nc4cc(O[C@@H]5CO[C@H]6[C@@H]5OC[C@H]6O)[nH]c4cc3F)cc2)cc1 [Compound I-4-44]	1.6	518	–
COC(=O)NC1CCN(c2ccc(-c3nc4cc(O[C@@H]5CO[C@H]6[C@@H]5OC[C@H]6O)[nH]c4cc3F)cc2)CC1 [Compound I-4-53]	10	509	–
CS(=O)(=O)Nc1ccc(-c2ccc(-c3nc4cc(O[C@@H]5CO[C@H]6[C@@H]5OC[C@H]6O)[nH]c4cc3F)cc2)nc1 [Compound I-4-56]	5.8	396	–
COC(=O)NC1CC=C(c2ccc(-c3nc4cc(O[C@@H]5CO[C@H]6[C@@H]5OC[C@H]6O)[nH]c4cc3F)cc2)CC1 (stereo partly drawn) [Compound I-4-58]	4.3	486	–
